In the data set the test system is rodent carcinogenicity bioassays, tumor incidence. In words: CCRIS carcinogenicity studies. A digest of the protocol: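 NCI-built, expert-reviewed records of carcinogenicity and related test outcomes (mutagenicity, tumor promotion/inhibition) compiled from published and report sources, historical span 1985-2011, not updated.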

The source made the active and inactive calls. No rule for the calls is given here.

For the compound `ClC1(Cl)C2(Cl)C3(Cl)C4(Cl)C(Cl)(Cl)C5(Cl)C3(Cl)C1(Cl)C5(Cl)C24Cl` (centres undefined), the carcinogen call is “active; positive” (Species: MOUSE, Strain/Sex: B6AKF1/MALE,FEMALE, Route: GAVAGE/ORAL, Dose: 10 MG/KG FROM D 7- 28 OF LIFE THEN 26 PPM IN DIET, Tumor Site: Type of Lesion: LIVER: HEPATOMA); “active; positive” (Species: MOUSE, Strain/Sex: B6C3F1/MALE,FEMALE, Route: GAVAGE/ORAL, Dose: 10 MG/KG FROM D 7- 28 OF LIFE THEN 26 PPM IN DIET, Tumor Site: Type of Lesion: LIVER: HEPATOMA); “active; positive” (Species: RAT, Route: ORAL, Tumor Site: Type of Lesion: LIVER); “active; positive” (Species: RAT, Strain/Sex: F344/FEMALE, Route: ORAL, Dose: 0, 0.1, 1, 10, 25, 50 PPM IN FEED FOR 104 WK (STUDY DURATION: 105 WK), Dose: 0, 0.1, 1, 10, 25, 50 PPM IN FEED FOR 104 WK (STUDY DURATION: 105 WK), Tumor Site: Type of Lesion: HEMATOPOIETIC SYSTEM: MONONUCLEAR CELL LEUKEMIA); “active; positive” (Species: RAT, Strain/Sex: F344/FEMALE, Route: ORAL, Dose: 0, 50, 100 PPM IN FEED FOR 104 WK (STUDY DURATION: 106 WK), Dose: 0, 50, 100 PPM IN FEED FOR 104 WK (STUDY DURATION: 106 WK), Tumor Site: Type of Lesion: HEMATOPOIETIC SYSTEM: MONONUCLEAR CELL LEUKEMIA, LIVER: NEOPLASTIC NODULE, NEOPLASTIC NODULE OR HEPATOCELLULAR CARCINOMA); “active; positive” (Species: RAT, Strain/Sex: F344/MALE, Route: ORAL, Dose: 0, 0.1, 1, 10, 25, 50 PPM IN FEED FOR 104 WK (STUDY DURATION: 105 WK), Dose: 0, 0.1, 1, 10, 25, 50 PPM IN FEED FOR 104 WK (STUDY DURATION: 105 WK), Tumor Site: Type of Lesion: LIVER: NEOPLASTIC NODULE, NEOPLASTIC NODULE OR HEPATOCELLULAR CARCINOMA, ADRENAL GLAND: PHEOCHROMOCYTOMA, PHEOCHROMOCYTO).

Regarding `Nc1nc(N)c2nc(-c3ccccc3)c(N)nc2n1`, the carcinogen call is “active; positive” (Species: MOUSE, Strain/Sex: B6C3F1/FEMALE, Route: ORAL, Dose: 0, 100, 200, 400 PPM IN FEED FOR 104 WK (STUDY DURATION: 2 YR), Dose: 0, 100, 200, 400 PPM IN FEED FOR 104 WK (STUDY DURATION: 2 YR), Tumor Site: Type of Lesion: LIVER: HEPATOCELLULAR ADENOMA); “active; positive” (Species: MOUSE, Strain/Sex: B6C3F1/FEMALE, Route: ORAL, Dose: 0, 400 PPM IN FEED FOR 104 WK (STUDY DURATION: 2 YR), Tumor Site: Type of Lesion: LIVER: HEPATOCELLULAR ADENOMA); “active; positive” (Species: MOUSE, Strain/Sex: B6C3F1/MALE, Route: ORAL, Dose: 0, 100, 200, 400 PPM IN FEED FOR 104 WK (STUDY DURATION: 2 YR), Dose: 0, 100, 200, 400 PPM IN FEED FOR 104 WK (STUDY DURATION: 2 YR), Tumor Site: Type of Lesion: LIVER: HEPATOCELLULAR CARCINOMA); “active; positive” (Species: MOUSE, Strain/Sex: B6C3F1/MALE, Route: ORAL, Dose: 0, 400 PPM IN FEED FOR 104 WK (STUDY DURATION: 2 YR), Tumor Site: Type of Lesion: LIVER: HEPATOCELLULAR ADENOMA); “inactive; negative” (Species: RAT, Strain/Sex: F344/FEMALE, Route: ORAL, Dose: 0, 150, 300, 600 PPM IN FEED FOR 104 WK (STUDY DURATION: 2 YR), Dose: 0, 150, 300, 600 PPM IN FEED FOR 104 WK (STUDY DURATION: 2 YR)); “equivocal” (Species: RAT, Strain/Sex: F344/MALE, Route: ORAL, Dose: 0, 150, 300, 600 PPM IN FEED FOR 104 WK (STUDY DURATION: 105 WK), Dose: 0, 150, 300, 600 PPM IN FEED FOR 104 WK (STUDY DURATION: 105 WK), Tumor Site: Type of Lesion: LIVER: ADENOMA).

Take `ClCC(Cl)Cl`: the carcinogen call is, setting by setting: (Species: MOUSE, Strain/Sex: B6C3F1/FEMALE, Route: GAVAGE, Dose: 0, 195, 390 MG/KG/D, TWA, Dose: 0, 195, 390 MG/KG/D, TWA, Tumor Site: Type of Lesion: LIVER: HEPATOCELLULAR CARCINOMA) “active; positive”; (Species: MOUSE, Strain/Sex: B6C3F1/MALE, Route: GAVAGE, Dose: 0, 195, 390 MG/KG/D, TWA, Dose: 0, 195, 390 MG/KG/D, TWA, Tumor Site: Type of Lesion: LIVER: HEPATOCELLULAR CARCINOMA) “active; positive”; (Species: RAT, Strain/Sex: OSBORNE-MENDEL/FEMALE, Route: GAVAGE, Dose: 0, 46, 92 MG/KG/D, TWA, Dose: 0, 46, 92 MG/KG/D, TWA) “inactive; negative”; (Species: RAT, Strain/Sex: OSBORNE-MENDEL/MALE, Route: GAVAGE, Dose: 0, 46, 92 MG/KG/D, TWA, Dose: 0, 46, 92 MG/KG/D, TWA) “inactive; negative”.

Regarding `COc1ccc(N)cc1N`, the carcinogen call runs as follows: (Species: MOUSE, Strain/Sex: B6C3F1/FEMALE, Route: ORAL, Dose: 0, 0.12, 0.24% IN DIET FOR 78 WK (STUDY DURATION: 96-97 WK), Dose: 0, 0.12, 0.24% IN DIET FOR 78 WK (STUDY DURATION: 96-97 WK), Tumor Site: Type of Lesion: THYROID GLAND: FOLLICULAR CELL ADENOMA OR CARCINOMA) “active; positive”; (Species: MOUSE, Strain/Sex: B6C3F1/MALE, Route: ORAL, Dose: 0, 0.12, 0.24% IN DIET FOR 78 WK (STUDY DURATION: 96-97 WK), Dose: 0, 0.12, 0.24% IN DIET FOR 78 WK (STUDY DURATION: 96-97 WK), Tumor Site: Type of Lesion: THYROID GLAND: FOLLICULAR CELL ADENOMA) “active; positive”; (Species: RAT, Strain/Sex: F344/FEMALE, Route: ORAL, Dose: 0, 0.12, 0.5% TWA, IN DIET FOR 78 WK (STUDY DURATION: 107-110 WK), Dose: 0, 0.12, 0.5% TWA, IN DIET FOR 78 WK (STUDY DURATION: 107-110 WK), Tumor Site: Type of Lesion: THYROID GLAND: ADENOCARCINOMA (NOS) OR FOLLICULAR CELL CARCINOMA OR PAPILLARY CYSTADENOCARCINOMA (NOS), EAR (ZYMBAL GLAN) “active; positive”; (Species: RAT, Strain/Sex: F344/MALE, Route: ORAL, Dose: 0, 0.12, 0.5% TWA, IN DIET FOR 78 WK (STUDY DURATION: 107-109 WK), Dose: 0, 0.12, 0.5% TWA, IN DIET FOR 78 WK (STUDY DURATION: 107-109 WK), Tumor Site: Type of Lesion: THYROID GLAND: C CELL ADENOMA OR CARCINOMA, ADENOCARCINOMA (NOS), ADENOCARCINOMA (NOS) OR PAPILLARY ADENOCARCINOMA OR FO) “active; positive”.

Take `CCCN(C)N=O`: the carcinogen call reads like this: (Species: HAMSTER, Strain/Sex: SYRIAN/FEMALE, Route: GAVAGE, Dose: 0, 2.1 MG/KG 1/WK FOR 23-30 WK (TOTAL DOSE: 0; 0.6 MMOL) (STUDY DURATION: LIFETIME), Dose: 0, 2.1 MG/KG 1/WK FOR 23-30 WK (TOTAL DOSE: 0; 0.6 MMOL) (STUDY DURATION: LIFETIME), Tumor Site: Type of Lesion: LIVER: HEPATOCELLULAR ADENOMA, HEMANGIOSARCOMA, NASAL MUCOSA: CARCINOMA) “active; positive”; (Species: HAMSTER, Strain/Sex: SYRIAN/MALE,FEMALE, Route: SUBCUTANEOUS, Dose: 12.5, 25, 50 MG/KG 1/WK, Dose: 12.5, 25, 50 MG/KG 1/WK, Tumor Site: Type of Lesion: NASAL CAVITY: CARCINOMA, EPIDERMOID TUMOR, MUCOEPIDERMOID TUMOR, TRACHEA: PAPILLARY POLYP, LUNG: ADENOMA, CARCINOMA, LIV, Tumor Site: Type of Lesion: NASAL CAVITY: CARCINOMA, EPIDERMOID TUMOR, MUCOEPIDERMOID TUMOR, TRACHEA: PAPILLARY POLYP, LUNG: ADENOMA, CARCINOMA, LIV) “active; positive”; (Species: HAMSTER, Strain/Sex: SYRIAN/MALE, Route: GAVAGE, Dose: 0, 2.1 MG/KG 1/WK FOR 23-30 WK (TOTAL DOSE: 0; 0.6 MMOL) (STUDY DURATION: LIFETIME), Dose: 0, 2.1 MG/KG 1/WK FOR 23-30 WK (TOTAL DOSE: 0; 0.6 MMOL) (STUDY DURATION: LIFETIME), Tumor Site: Type of Lesion: LIVER: HEPATOCELLULAR ADENOMA, HEMANGIOSARCOMA, LUNG: ALVEOLAR/BRONCHIAL ADENOMA, NASAL MUCOSA: CARCINOMA, Tumor Site: Type of Lesion: LIVER: HEPATOCELLULAR ADENOMA, HEMANGIOSARCOMA, LUNG: ALVEOLAR/BRONCHIAL ADENOMA, NASAL MUCOSA: CARCINOMA) “active; positive”; (Species: MOUSE, Strain/Sex: NMRI/FEMALE, Route: SUBCUTANEOUS, Dose: 0.05, 0.1, 0.2 OF LD50 (77.1 MG/KG) 1/WK FOR LIFE, Dose: 0.05, 0.1, 0.2 OF LD50 (77.1 MG/KG) 1/WK FOR LIFE, Tumor Site: Type of Lesion: NASAL CAVITY: SQUAMOUS CELL PAPILLOMA, SQUAMOUS CELL CARCINOMA, LARYNX: PAPILLOMA, CARCINOMA (IN SITU), SQUAMOUS CELL CA) “active; positive”.

These data come from PubChem BioAssay AID1259411 (Chemical Carcinogenesis Research Information System (CCRIS), 2018).
